Source: ChEMBL document CHEMBL2434940, “Synthesis and antitumor activities of novel α-aminophosphonates dehydroabietic acid derivatives” (Bioorg Med Chem Lett, 2013)
Activity calls are given as the source filed them. No cut-off for these calls is given here.

Assays:
[1] = test system: HepG2; test: Cytotoxicity against human HepG2 cells after 48 hrs by MTT assay; assay type: functional, cell-based; settings: HepG2, 48 h
[2] = test system: A549; test: Cytotoxicity against human A549 cells after 48 hrs by MTT assay; assay type: functional, cell-based; settings: A549, 48 h
[3] = test system: SK-OV-3; test: Cytotoxicity against human SKOV3 cells after 48 hrs by MTT assay; assay type: functional, cell-based; settings: SK-OV-3, 48 h
[4] = test system: NCI-H460; test: Cytotoxicity against human NCI-H460 cells after 48 hrs by MTT assay; assay type: functional, cell-based; settings: NCI-H460, 48 h
[5] = test system: NCI-H460; test: Cell cycle arrest in human NCI-H460 cells assessed as accumulation at G2 phase at IC50 by propidium iodide staining-based FACS flow cytometric analysis relative to control; assay type: functional
[6] = test system: NCI-H460; test: Cell cycle arrest in human NCI-H460 cells assessed as accumulation at S phase at IC50 by propidium iodide staining-based FACS flow cytometric analysis relative to control; assay type: functional
[7] = test system: NCI-H460; test: Cell cycle arrest in human NCI-H460 cells assessed as accumulation at G1 phase at IC50 by propidium iodide staining-based FACS flow cytometric analysis relative to control; assay type: functional
[8] = test system: NCI-H460; test: Induction of apoptosis in human NCI-H460 cells assessed as necrotic/late apoptotic cells at 45 uM after 24 hrs by Annexin V-FITC and propidium iodide staining-based FACS flow cytometric analysis (reference value: 0.8%); assay type: functional
[9] = test system: NCI-H460; test: Induction of apoptosis in human NCI-H460 cells assessed as early apoptotic cells at 45 uM after 24 hrs by Annexin V-FITC and propidium iodide staining-based FACS flow cytometric analysis (reference value: 1.5%); assay type: functional
[10] = test system: NCI-H460; test: Induction of apoptosis in human NCI-H460 cells assessed as loss of mitochondria membrane potential at 45 uM after 24 hrs by JC-1 staining-based fluorescence microscopic analysis; assay type: functional, cell-based
[11] = test system: NCI-H460; test: Induction of apoptosis in human NCI-H460 cells assessed as membrane blebbing at 5 uM after 12 to 24 hrs by AO/EB staining-based fluorescence microscopic analysis; assay type: functional, cell-based
[12] = test system: NCI-H460; test: Induction of apoptosis in human NCI-H460 cells assessed as pycnosis at 5 uM after 12 to 24 hrs by AO/EB staining-based fluorescence microscopic analysis; assay type: functional, cell-based
[13] = test system: NCI-H460; test: Induction of apoptosis in human NCI-H460 cells assessed as cell budding at 5 uM after 12 to 24 hrs by AO/EB staining-based fluorescence microscopic analysis; assay type: functional
[14] = test system: NCI-H460; test: Induction of apoptosis in human NCI-H460 cells assessed as apoptotic ratio at 5 uM after 12 hrs by Annexin V-FITC and propidium iodide staining-based FACS flow cytometric analysis relative to control; assay type: functional
[15] = test system: NCI-H460; test: Induction of apoptosis in human NCI-H460 cells after 12 hrs by Annexin V-FITC and propidium iodide staining-based FACS flow cytometric analysis; assay type: functional, cell-based
[16] = test system: NCI-H460; test: Induction of apoptosis in human NCI-H460 cells assessed as early apoptotic cells at 5 uM after 12 hrs by Annexin V-FITC and propidium iodide staining-based FACS flow cytometric analysis (reference value: 3.8%); assay type: functional
[17] = test system: NCI-H460; test: Induction of apoptosis in human NCI-H460 cells assessed as necrotic/late apoptotic cells at 5 uM after 24 hrs by Annexin V-FITC and propidium iodide staining-based FACS flow cytometric analysis (reference value: 1.9%); assay type: functional
[18] = test system: NCI-H460; test: Induction of apoptosis in human NCI-H460 cells assessed as early apoptotic cells at 5 uM after 24 hrs by Annexin V-FITC and propidium iodide staining-based FACS flow cytometric analysis (reference value: 3.8%); assay type: functional
[19] = test system: NCI-H460; test: Induction of apoptosis in human NCI-H460 cells at 5 uM after 12 to 24 hrs by Hoechst 33258 staining-based fluorescence microscopic analysis; assay type: functional, cell-based
[20] = test system: NCI-H460; test: Induction of apoptosis in human NCI-H460 cells assessed as loss of mitochondria membrane potential at 5 uM after 12 to 24 hrs by JC-1 staining-based fluorescence microscopic analysis; assay type: functional, cell-based
[21] = test system: NCI-H460; test: Induction of apoptosis in human NCI-H460 cells assessed as apoptotic ratio at 3 uM after 12 hrs by Annexin V-FITC and propidium iodide staining-based FACS flow cytometric analysis relative to control; assay type: functional
[22] = test system: NCI-H460; test: Cytotoxicity against human NCI-H460 cells at 5 uM after 12 to 24 hrs by AO/EB staining-based fluorescence microscopic analysis; assay type: cell-based; settings: nci-h460, 5 µM
[23] = test system: NCI-H460; test: Induction of apoptosis in human NCI-H460 cells assessed as necrotic/late apoptotic cells at 5 uM after 12 hrs by Annexin V-FITC and propidium iodide staining-based FACS flow cytometric analysis (reference value: 1.9%); assay type: functional

## CCOP(=O)(OCC)C(NC(=S)NC(=O)[C@]1(C)CCC[C@]2(C)c3ccc(C(C)C)cc3CC[C@@H]12)c1ccc(C)cc1 (stereo partly specified)
[1]
  IC50: 30 µM
[2]
  IC50: 21.9 µM
[3]
  IC50: 14.1 µM
[4]
  IC50: 26.4 µM

## CCOP(=O)(OCC)C(NC(=S)NC(=O)[C@]1(C)CCC[C@]2(C)c3ccc(C(C)C)cc3CC[C@@H]12)c1cccc(Cl)c1 (stereo partly specified)
[1]
  IC50: > 50 µM
[2]
  IC50: 26.4 µM
[3]
  IC50: 19.7 µM
[4]
  IC50: 36.4 µM

## CCOP(=O)(OCC)C(NC(=S)NC(=O)[C@]1(C)CCC[C@]2(C)c3ccc(C(C)C)cc3CC[C@@H]12)c1ccccc1F (stereo partly specified)
[1]
  IC50: 11.4 µM
[2]
  IC50: 14 µM
[3]
  IC50: 10 µM
[4]
  IC50: 17.8 µM

## CCOP(=O)(OCC)C(NC(=S)NC(=O)[C@]1(C)CCC[C@]2(C)c3ccc(C(C)C)cc3CC[C@@H]12)c1ccc(Cl)cc1 (stereo partly specified)
[1]
  IC50: 26.5 µM
[2]
  IC50: 12.7 µM
[3]
  IC50: 14.5 µM
[4]
  IC50: 19.7 µM

## CCOP(=O)(OCC)C(NC(=S)NC(=O)[C@]1(C)CCC[C@]2(C)c3ccc(C(C)C)cc3CC[C@@H]12)c1ccc2ccccc2c1 (stereo partly specified)
[1]
  IC50: > 50 µM
[2]
  IC50: 45.7 µM
[3]
  IC50: > 50 µM
[4]
  IC50: 22.7 µM

## O=c1[nH]cc(F)c(=O)[nH]1 [FLUOROURACIL]
[5]
  Activity: 0%
[1]
  IC50: 30 µM
[6]
  Activity: 28.07%
[7]
  Activity: 71.93%
[8]
  Activity: 6.5%
[9]
  Activity: 16.8%
[10]
  Activity: Active

## CCOP(=O)(OCC)C(NC(=S)NC(=O)[C@]1(C)CCC[C@]2(C)c3ccc(C(C)C)cc3CC[C@@H]12)c1cccc(Br)c1 (stereo partly specified)
[1]
  IC50: 15.2 µM
[2]
  IC50: 19.5 µM
[3]
  IC50: 20.7 µM
[4]
  IC50: 14.8 µM

## CCOP(=O)(OCC)C(NC(=S)NC(=O)[C@]1(C)CCC[C@]2(C)c3ccc(C(C)C)cc3CC[C@@H]12)c1cccc(F)c1 (stereo partly specified)
[1]
  IC50: 31.6 µM
[2]
  IC50: 24.4 µM
[3]
  IC50: 13.7 µM
[4]
  IC50: 27.5 µM

## CCOP(=O)(OCC)C(NC(=S)NC(=O)[C@]1(C)CCC[C@]2(C)c3ccc(C(C)C)cc3CC[C@@H]12)c1ccc(Br)cc1 (stereo partly specified)
[1]
  IC50: 24 µM
[2]
  IC50: 20.2 µM
[3]
  IC50: 14 µM
[4]
  IC50: 18.7 µM

## CCOP(=O)(OCC)C(NC(=S)NC(=O)[C@]1(C)CCC[C@]2(C)c3ccc(C(C)C)cc3CC[C@@H]12)c1cccc(OC)c1 (stereo partly specified)
[1]
  IC50: 18 µM
[2]
  IC50: 29.6 µM
[3]
  IC50: 9.96 µM
[4]
  IC50: 15.8 µM

## CCOP(=O)(OCC)C(NC(=S)NC(=O)[C@]1(C)CCC[C@]2(C)c3ccc(C(C)C)cc3CC[C@@H]12)c1ccccc1 (stereo partly specified)
[1]
  IC50: 15.2 µM
[2]
  IC50: 24.2 µM
[3]
  IC50: 12.1 µM
[4]
  IC50: 28.1 µM

## CCOP(=O)(OCC)C(NC(=S)NC(=O)[C@]1(C)CCC[C@]2(C)c3ccc(C(C)C)cc3CC[C@@H]12)c1cccc(C)c1 (stereo partly specified)
[1]
  IC50: 37.3 µM
[2]
  IC50: 18.8 µM
[3]
  IC50: 16.6 µM
[4]
  IC50: 17.8 µM

## CCOP(=O)(OCC)C(NC(=S)NC(=O)[C@]1(C)CCC[C@]2(C)c3ccc(C(C)C)cc3CC[C@@H]12)c1ccccc1Cl (stereo partly specified)
[1]
  IC50: 24.9 µM
[2]
  IC50: 19.6 µM
[3]
  IC50: 15.3 µM
[4]
  IC50: 30.7 µM

## CCOP(=O)(OCC)C(NC(=S)NC(=O)[C@]1(C)CCC[C@]2(C)c3ccc(C(C)C)cc3CC[C@@H]12)c1ccc(F)cc1 (stereo partly specified)
[1]
  IC50: 10.3 µM
[2]
  IC50: 23.4 µM
[3]
  IC50: 13.5 µM
[4]
  IC50: 4.39 µM

## CCOP(=O)(OCC)C(NC(=S)NC(=O)[C@]1(C)CCC[C@]2(C)c3ccc(C(C)C)cc3CC[C@@H]12)c1cccc2ccccc12 (stereo partly specified)
[1]
  IC50: > 50 µM
[2]
  IC50: 28.3 µM
[3]
  IC50: 19.1 µM
[4]
  IC50: 32.6 µM

## CCOP(=O)(OCC)C(NC(=S)NC(=O)[C@]1(C)CCC[C@]2(C)c3ccc(C(C)C)cc3CC[C@@H]12)c1ccccc1Br (stereo partly specified)
[1]
  IC50: 27.1 µM
[2]
  IC50: 22.2 µM
[3]
  IC50: 17.4 µM
[4]
  IC50: 18.6 µM

## CCOP(=O)(OCC)C(NC(=S)NC(=O)[C@]1(C)CCC[C@]2(C)c3ccc(C(C)C)cc3CC[C@@H]12)c1ccccc1OC (stereo partly specified)
[5]
  Activity: 13.7%
[1]
  IC50: 7.7 µM
[6]
  Activity: 23.49%
[11]
  Activity: Active
[12]
  Activity: Active
[2]
  IC50: 18.4 µM
[3]
  IC50: 18.9 µM
[7]
  Activity: 62.8%
[13]
  Activity: Active
[14]
  Activity: 51.5%
[4]
  IC50: 3.33 µM
[15]
  Activity: Dose-dependent effect
[16]
  Activity: 14.3%
[17]
  Activity: 16.2%
[18]
  Activity: 35.3%
[19]
  Activity: Active
[20]
  Activity: Active
[21]
  Activity: 19.5%
[22]
  Activity: Non-toxic
[23]
  Activity: 5.2%

## CCOP(=O)(OCC)C(NC(=S)NC(=O)[C@]1(C)CCC[C@]2(C)c3ccc(C(C)C)cc3CC[C@@H]12)c1ccc(OC)cc1 (stereo partly specified)
[1]
  IC50: 32.1 µM
[2]
  IC50: 15.3 µM
[3]
  IC50: 21.4 µM
[4]
  IC50: 25 µM
